# Laboratory results published in US20180017584A1, “ADDITIVE CHANNELS” (Emulate Inc., priority 2016, published 2018).
# Positions of bridges follow the written chain, without caps; N, C: chain ends. Non-standard residues stand in square brackets, D forms with d. Residues, ends and D or L forms follow the SMILES beside them. hArg = N=C(N)NCCCC[C@H](N)C(=O)O; Mpa = O=C(O)CCS
# Key:
# [1] = tested on: p-selectin on platelets; assay: Quality control of platelet activation by p-selectin expression; type: cell-based, human; settings: control blood upon activation by ADP
# Experimental: (§1) To test for a thrombic event, blood was collected from 4 donors, the as blood alone or blood treated with hu5C8 alone (240 μg/mL), sCD40L (10 ng/ml) alone or with combined hu5C8/sCD40L was incubated for 20 minutes at room temperature. Each sample was further incubated for 5 minutes with fluorescent labels for platelets and fibrinogen. As a standard quality control, the control blood was tested for platelet activation using p-selection expression. We confirmed that platelets in control blood were not activated but upon activation by ADP, over 90% of platelet was positive for p-selectin.
# [2] = tested on: platelets in human whole blood perfused over HUVEC endothelium; assay: Vessel-On-Chip blood perfusion, platelet coverage / aggregation by fluorescence imaging (CD41 label); type: cell-based; settings: for platelet coverage / platelet aggregate formation on the endothelium: vs blood alone, TNF-α 50 ng/ml 6 h, sCollagen 10 μg/ml, hu5C8 240 μg/ml + sCD40L 10 ng/ml
# Experimental: (§2) Experiments with Blood: Blood Samples And Endothelium: Citrated human blood (Research Blood Components, Cambridge, Mass.) was used within 4 hours of a blood draw in order to minimize pre-analytical effects on platelet function. Before every experiment, each one of the endothelialized channels (i.e. microchannels having an endothelial cell layer) was inspected via light microscopy, Samples showing any sign of discontinuity in the endothelium were discarded.
# (§3) Blood Pre-treatment and Perfusion: Formation of IC (preformed IC): Hu5C8, IgG2σ (control) (both provided by Janssen or provided as described herein) For studies with preformed IC, Hu5C8 or IgG2σ as an isotype control were combined with sCD40L (Tonbo Biosciences, San Diego, Calif.) in PBS, in a ratio of I molecule of sCD40L to 3000 molecules of antibody. After 20 minutes incubation at room temperature, the solution was diluted in a blood sample to reach the final concentration of 240 μg/ml (Hu5C8) and 10 ng/ml (sCD40L).
# Platelets: Platelets were labeled with human CD41-PE antibody (10 μL/ml. Invitrogen) directly added to the blood and incubated at room temperature for 5 minutes.
# Anticoagulant Drug: As an exemplary standard antiplatelet (anticoagulant) drug, Eptifibatide was used as described herein. Eptifibatide has a well-known mechanism of action, such that a bolus of 180 mcg/Kg is frequently used to treat human patients.^54 We estimated that a concentration of 2.4 μM (about 2 μg/ml) is a clinical relevant concentration. As described herein for experiments including Eptifibatide, 2 μg/ml of Eptifibatide were incubated with blood samples for 15 minutes at room temperature before adding sCollagen or before flowing through TNF-inflamed biomimetic vessel.
# (§4) Adding Blood to a Vessel-On-Chip And Flow Conditions: A medical grade plastic reservoir was mounted on the chip, then 800 μl of the blood sample was pipetted into the reservoir. The chip was perfused with the blood by withdrawing it at a rate of 60 μl/minute using a syringe pump. The citrated blood was re-calcified 2 minutes after the beginning of each experiment by adding 100 μl/ml of a solution containing 100 mM calcium chloride and 75 mM magnesium chloride to the blood to permit calcium- and magnesium-dependent platelet function and coagulation.
# (§5) Staining of Endothelial Cells: Samples were washed twice in cell culture medium and then fixed in acetone/methanol 1:1 at −20° C., for 10 minutes. Each sample was then washed three times in PBS and incubated in blocking solution consisting of PBS and 10% normal donkey serum (Abcam) for one hour. After blocking, samples were washed in PBS twice and then incubated with anti VE-Cadherin monoclonal antibody (Abeam) diluted 1:100 in blocking solution at 4° C. overnight. […] Fluorescence Image analysis: Chips perfused with blood samples were immediately imaged via fluorescence microscopy (Olympus 1X83, 10× objective UPLFLN10X2, Circa-Flash4.0 CMOS Camera). […] Image processing and quantification was performed with an automatic macro compiled in […] and numerical values corresponding to platelet coverage or fibrin florescence were collected and statistically analyzed in Graphpad Prism V7.
# Platelet Coverage: A percentage of signal coverage (or Platelet coverage) was computed from the binary image as the ratio of bright pixels to the total number of pixels in the image, Image processing and quantification was performed with an automatic macro compiled in ImageJ in order to ensure unbiased signal measurements. […]
# [3] = tested on: fibrin deposition from human whole blood on HUVEC endothelium; assay: Vessel-On-Chip blood perfusion, fibrin deposition by fluorescent fibrinogen imaging; type: cell-based; settings: for fibrin deposition / fibrin signal intensity on the endothelium: vs blood alone, TNF-α 50 ng/ml 6 h, sCollagen 10 μg/ml, hu5C8 240 μg/ml + sCD40L 10 ng/ml
# Experimental: as §2, §4
# Visualizing Fibrin Deposition: When analyzing the formation of fibrin, 10 μg/ml of fluorescently labeled fibrinogen (Alexa 488, Invitrogen) was also added to the blood. While fluorescent fibrinogen was barely detected as a diffused fluorescence, fibrin deposition on inflamed cells and sparse clots was easily distinguished since fibrin formed filamentous structures produce a signal intensity that is clearly observed above a background threshold.
# as §5, with “hour.” for “hour. After blocking, samples were washed in PBS twice and then incubated with anti VE-Cadherin monoclonal antibody (Abeam) diluted 1:100 in blocking solution at 4° C. overnight.”
# Platelet Coverage: A percentage of signal coverage (or Platelet coverage) was computed from the binary image as the ratio of bright pixels to the total number of pixels in the image, Image processing and quantification was performed with an automatic macro compiled in ImageJ in order to ensure unbiased signal measurements. Numerical values corresponding to platelet coverage or fibrin fluorescence (signal intensity) were collected and statistically analyzed in Graphpad Prism V7.
# [4] = tested on: thrombin anti-thrombin complex (TAT); assay: Thrombin-Anti Thrombin (TAT) measurement via ELISA in chip effluent; type: cell-based, human; settings: for levels of TAT in outflow: vs blood alone, TNF-α 50 ng/ml 6 h endothelial pre-treatment, sCollagen in blood, hu5C8 240 μg/ml + sCD40L 10 ng/ml
# Experimental: Thrombin-Anti Thrombin (TAT) measurement via ELISA: Thrombin Anti-Thrombin (TAT) levels were analyzed in plasma from blood flowing out of the chip device by removing a sample from the outflow port. Thus TAT levels were evaluated in sample effluents collected from the outflow port of the chip using the Human TAT ELISA Kit (Siemens Healthineers) according to the user manual.
# Blood sampled from the Vessel-On-Chip outflow port was analyzed for thrombin anti-thrombin complex (TAT), a factor released upon activation of the coagulation cascade and one of the biomarkers associated with thrombotic events occurring in patients affected with deep vein thrombosis (DVT) or SLE^45,46. TAT is an accepted clinical biomarker for procoagulation^48,49. An enzyme-linked immunosorbent assay (ELISA) was used to quantify the thrombin anti-thrombin complex (TAT).
# [5] = tested on: ICAM1; assay: ICAM1 immunostaining of endothelium on chip; type: cell-based, human; settings: TNF-α stimulated endothelium
# Experimental: ICAM1 is shown with examples identified by white arrows. One example of a DAPI stained nuclei is shown inside of a white circle.
# TNF-alpha Stimulation: In some experiment endothelial cells were stimulate with 50 ng/ml of TNF (Sigma) for 6 hours in order to induce vascular inflammation before blood perfusion.
# [6] = tested on: human whole blood perfused over HUVEC endothelium; assay: Thrombosis on-chip, combined endpoints (platelet coverage, fibrin deposition, TAT); type: cell-based; settings: hu5C8 alone 240 μg/mL; sCD40L alone 10 ng/ml; 4 donors; 60 μl/minute
# Experimental: as §3, §1
# Re-calcified blood samples were then perfused through the biomimetic vessel with untreated endothelium at a flow rate of 60 ul/minute for about 10 minutes while sodium citrate was re-introduced through the anticoagulant port. […]
# [7] = tested on: lupus nephritis patients; settings: lupus nephritis clinical study; cited from earlier work
# [8] = Eptifibatide 2 ug/ml, endothelium inflamed with TNF-α, n=4
compound,measurement,setting,value
Nc1ncnc2c1ncn2[C@@H]1O[C@H](COP(=O)(O)OP(=O)(O)O)[C@@H](O)[C@H]1O [ADP],platelets positive for p-selectin,[1],over 90%
N=C(N)NCCCC[C@@H]1NC(=O)CCSSC[C@@H](C(N)=O)NC(=O)[C@@H]2CCCN2C(=O)[C@H](Cc2c[nH]c3ccccc23)NC(=O)[C@H](CC(=O)O)NC(=O)CNC1=O [Eptifibatide] ([Mpa][hArg]GDWPC-NH2; disulfide 1-7),inhibition of platelet aggregation,[2]; [8],significantly inhibited
same,inhibitory effect on platelet aggregation and fibrin clot formation,"[2]; Eptifibatide 2 ug/ml, following treatment with sCollagen, n=4",comparatively modest
same,platelet adhesion (image analysis of multiple experiments),"[2]; Eptifibatide 2 ug/ml, n=4",completely inhibited
same,inhibition of fibrin clot formation,[3]; [8],significantly inhibited
same,fibrin signal remaining under Eptifibatide,"[3]; Eptifibatide 2 ug/ml, samples treated with TNF-α",significant amount of fibrin signal was still detectable
same,effect on TAT increment associated with TNF-α-induced inflammation,"[4]; Eptifibatide 2 ug/ml, TNF-α pre-treated endothelium",did not inhibit
same,effect on TAT increment due to sCollagen treatment,"[4]; Eptifibatide 2 ug/ml, sCollagen-treated blood",entirely suppressed
TNF-α,platelet coverage / platelet aggregate formation on the endothelium,[2],increased
same,fibrin deposition / fibrin signal intensity on the endothelium,[3],increased
same,levels of TAT in outflow,[4],significantly increased
same,expression of ICAM1 in the endothelium compared to the control,[5],increased expression
hu5C8: humanized monoclonal IgG1 antibody against CD40L (anti-CD154),treatment-related effects compared to untreated blood,[6],no significant treatment-related effects
same,incidence of thromboembolitic events,[7],2/18
"sCollagen: soluble collagen (Soluble Calf Skin, Type I), a standard platelet activator",platelet coverage / platelet aggregate formation on the endothelium,[2],increased
same,fibrin deposition / fibrin signal intensity on the endothelium,[3],increased
same,levels of TAT in outflow,[4],minimally increased
